Laboratory results reported in patent US20250197375A1, “PYRIMIDINES AND METHODS OF THEIR USE” (Kineta, Inc., priority 2021, published 2025).

Assays:
[1] = target: PIKfyve (Homo sapiens (Human), UniProt Q9Y2I7); test: PIKfyve EEA1 Assay (endosomal vesicle enlargement, high content imaging in U2OS cells); assay type: cell-based; settings: 3 hours of treatment, activity relative to maximal APY0201 activity
Procedure, shortened: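 U2OS cells exposed to compound for 3 h in DMEM with 10% FBS, then fixed, EEA1-immunostained and imaged at 40×. Endosome enlargement scored by a classifier on EEA1 spot size, intensity and texture, trained on APY0201-treated cells. Percent activity set DMSO-subtracted versus maximal APY0201, IC50 by logistic regression.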

[2] = target: full-length human PIKFYVE (Homo sapiens (Human), UniProt Q9Y2I7, L932S/Q1183K/Q995L/S1033A/S696N/T998S); test: PIKfyve Biochemical Assay (ADP-Glo Kinase assay, GST-PIKFYVE); settings: ADP-Glo, 1 hour at room temperature, 10 μM to 3 nM in duplicate; read-out: PIKfyve Biochemistry IC50 (μM)*
Method: PIKfyve Biochemical Assay. The biochemical PIKFyve inhibition assays were run by Cama Biosciences according to proprietary methodology based on the Promega ADP-Glo™ Kinase assay. […] GST-PIKFYVE was purified by using glutathione sepharose chromatography and used in an ADP-Glo™ Kinase assay (Promega). Reactions were set up by adding the test compound solution, substrate solution, ATP solution and kinase solution, each at 4× final concentrations. Reactions were prepared with assay buffer (50 mM MOPS, 1 mM DTT, pH7.2), mixed, and incubated in black 384 well polystyrene plates for 1 hour at room temperature. ADP-Glo™ reagent was then added for 40 minutes, followed by kinase detection reagent for an additional 40 minutes. The kinase activity was evaluated by detecting relative light units on a luminescence plate reader. Samples were run in duplicate from 10 μM to 3 nM. […] IC50 values were calculated from concentration versus percent inhibition curves by fitting to a four-parameter logistic curve.
The biochemical PIKFyve inhibition assays were run by Cama Biosciences according to proprietary methodology based on the Promega ADP-Glo™ Kinase assay. […] GST-PIKFYVE was purified by using glutathione sepharose chromatography and used in an ADP-Glo™ Kinase assay (Promega).
Reactions were set up by adding the test compound solution, substrate solution, ATP solution and kinase solution, each at 4× final concentrations. Reactions were prepared with assay buffer (50 mM MOPS, 1 mM DTT, pH7.2), mixed, and incubated in black 384 well polystyrene plates for 1 hour at room temperature. ADP-Glo™ reagent was then added for 40 minutes, followed by kinase detection reagent for an additional 40 minutes. The kinase activity was evaluated by detecting relative light units on a luminescence plate reader. Samples were run in duplicate from 10 uM to 3 nM. […] IC50 values were calculated from concentration vs % inhibition curves by fitting to a four-parameter logistic curve.

Chain of PIKfyve (Q9Y2I7 whole entry): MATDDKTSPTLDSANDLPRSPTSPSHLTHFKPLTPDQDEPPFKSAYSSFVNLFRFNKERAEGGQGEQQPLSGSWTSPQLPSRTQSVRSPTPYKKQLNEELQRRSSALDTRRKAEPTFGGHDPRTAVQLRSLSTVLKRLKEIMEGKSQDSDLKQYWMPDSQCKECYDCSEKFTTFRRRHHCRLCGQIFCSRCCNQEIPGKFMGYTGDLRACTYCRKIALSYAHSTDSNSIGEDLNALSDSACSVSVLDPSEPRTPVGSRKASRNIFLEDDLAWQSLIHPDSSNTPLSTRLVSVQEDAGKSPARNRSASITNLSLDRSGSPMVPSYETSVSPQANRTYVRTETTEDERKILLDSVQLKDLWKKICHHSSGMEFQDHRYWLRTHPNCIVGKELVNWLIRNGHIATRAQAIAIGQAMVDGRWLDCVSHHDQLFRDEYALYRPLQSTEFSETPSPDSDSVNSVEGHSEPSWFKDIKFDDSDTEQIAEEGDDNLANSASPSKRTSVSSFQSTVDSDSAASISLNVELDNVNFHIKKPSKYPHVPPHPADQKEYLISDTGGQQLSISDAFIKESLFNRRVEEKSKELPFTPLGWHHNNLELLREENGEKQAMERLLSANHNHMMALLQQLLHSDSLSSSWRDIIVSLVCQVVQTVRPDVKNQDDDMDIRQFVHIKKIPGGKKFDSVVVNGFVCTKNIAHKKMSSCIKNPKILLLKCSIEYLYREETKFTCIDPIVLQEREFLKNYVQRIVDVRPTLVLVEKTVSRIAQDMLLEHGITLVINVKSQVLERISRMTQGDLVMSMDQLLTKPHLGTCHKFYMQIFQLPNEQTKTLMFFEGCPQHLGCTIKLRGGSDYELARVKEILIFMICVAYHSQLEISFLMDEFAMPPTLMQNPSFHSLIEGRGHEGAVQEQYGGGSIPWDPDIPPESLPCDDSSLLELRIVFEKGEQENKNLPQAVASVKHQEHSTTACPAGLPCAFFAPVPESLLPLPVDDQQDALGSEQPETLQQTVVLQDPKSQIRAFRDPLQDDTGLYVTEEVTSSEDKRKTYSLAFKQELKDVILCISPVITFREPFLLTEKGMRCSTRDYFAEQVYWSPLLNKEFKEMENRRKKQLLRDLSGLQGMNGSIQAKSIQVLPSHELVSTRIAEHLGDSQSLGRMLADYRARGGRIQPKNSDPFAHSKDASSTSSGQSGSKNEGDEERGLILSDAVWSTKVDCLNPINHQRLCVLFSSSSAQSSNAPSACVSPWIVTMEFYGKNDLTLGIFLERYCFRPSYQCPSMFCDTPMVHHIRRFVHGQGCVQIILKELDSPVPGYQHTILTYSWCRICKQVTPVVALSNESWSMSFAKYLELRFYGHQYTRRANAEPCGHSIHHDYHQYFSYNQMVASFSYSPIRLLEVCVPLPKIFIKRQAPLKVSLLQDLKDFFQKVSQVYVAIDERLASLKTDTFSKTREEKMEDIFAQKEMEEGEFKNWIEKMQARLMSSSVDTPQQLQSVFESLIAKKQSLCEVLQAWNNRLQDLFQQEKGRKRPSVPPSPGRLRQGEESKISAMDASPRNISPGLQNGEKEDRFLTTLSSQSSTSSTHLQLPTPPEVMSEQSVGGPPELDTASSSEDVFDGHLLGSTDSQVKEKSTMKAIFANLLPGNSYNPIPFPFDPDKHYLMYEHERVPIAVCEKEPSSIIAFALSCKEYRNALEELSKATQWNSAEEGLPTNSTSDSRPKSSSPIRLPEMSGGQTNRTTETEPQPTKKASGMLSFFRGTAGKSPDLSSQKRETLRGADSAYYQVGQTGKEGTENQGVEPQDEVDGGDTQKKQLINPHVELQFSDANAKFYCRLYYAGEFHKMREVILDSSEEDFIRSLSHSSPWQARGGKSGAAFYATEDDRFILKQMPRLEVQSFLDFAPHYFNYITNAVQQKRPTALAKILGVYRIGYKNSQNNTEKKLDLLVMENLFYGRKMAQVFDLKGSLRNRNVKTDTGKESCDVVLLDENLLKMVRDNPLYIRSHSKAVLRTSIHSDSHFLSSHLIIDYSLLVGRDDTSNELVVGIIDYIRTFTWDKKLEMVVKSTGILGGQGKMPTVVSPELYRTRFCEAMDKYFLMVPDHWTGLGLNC
Chain of full-length human PIKFYVE (Q9Y2I7 whole entry S696N/L932S/Q995L/T998S/S1033A/Q1183K): as the sequence (Q9Y2I7 whole entry) above, with S696N, L932S, Q995L, T998S, S1033A, Q1183K counted along it

SMILES	IC50 [1] [µM]	IC50 [2] [µM]
Cn1ccc(-c2ccc3c(c2)-c2nc(N4CCOCC4)nc(Nc4ccncc4)c2OC3)n1 [Compound 49, 9-(1-methyl-1H-pyrazol-3-yl)-2-morpholino-N-(pyridin-4-yl)-6H-isochromeno[4,3-d]pyrimidin-4-amine]	0.1 to 1	0.01 to 0.1
Cn1ccc(-c2cccc(-c3nc(N4CCOCC4)nc(Nc4ccncc4)c3-c3ncco3)c2)n1 [Compound 74, 6-[3-(1-methylpyrazol-3-yl)phenyl]-2-morpholino-5-oxazol-2-yl-N-(4-pyridyl)pyrimidin-4-amine]	0.1 to 1	0.01 to 0.1
COc1c(C(=O)NC2CC2)nc(N2CCOCC2)nc1-c1cccc(-c2ccn(C)n2)c1 [Compound 6, N-cyclopropyl-4-methoxy-6-(3-(1-methyl-H-pyrazol-3-yl)phenyl)-2-morpholino pyrimidine-4-carboxamide]	1 to 10	0.01 to 0.1
COc1c(-c2ccncc2)nc(N2CCOCC2)nc1-c1cccc(-c2ccn(C)n2)c1 [Compound 30, 4-(5-methoxy-4-(3-(1-methyl-1H-pyrazol-3-yl)phenyl)-6-(pyridin-4-yl)pyrimidin-2-yl)morpholine]	1 to 10	0.01 to 0.1
COc1c(Nc2ccncc2)nc(N2CCOCC2)nc1-c1cccc(C(=O)N(C)C)c1 [Compound 11, 3-(5-methoxy-2-morpholino-6-(pyridin-4-ylamino)pyrimidin-4-yl)-N,N-dimethylbenzamide]	1 to 10	0.01 to 0.1
CN(C)C(=O)c1c(Nc2ccncc2)nc(N2CCOCC2)nc1-c1cccc(-n2cccn2)c1 [Compound 33]	0.1 to 1	0.01 to 0.1
COc1c(Nc2ccncc2)nc(N2CCOCC2)nc1-c1cccc(-c2ncccn2)c1 [Compound 16, 5-methoxy-2-morpholino-N-(pyridin-4-yl)-6-(3-(pyrimidin-2-yl)phenyl)pyrimidin-4-amine]	0.01 to 0.1	< 0.01
COc1c(Nc2ccncc2)nc(N2CCOCC2)nc1-c1cccc(-c2nn(C)cc2C)c1 [Compound 41]	0.1 to 1	0.01 to 0.1
COc1c(Nc2ccncc2)nc(N2CCOCC2)nc1-c1cccc(-n2cccn2)c1 [Compound 8, 6-(3-(1H-pyrazol-1-yl)phenyl)-5-methoxy-2-morpholino-N-(pyridin-4-yl)pyrimidin-4-amine]	0.1 to 1	< 0.01
COc1c(Nc2ccc(C)cc2)nc(N2CCOCC2)nc1-c1cc(-c2ccn(C)n2)cnn1 [Compound 17, 5-methoxy-6-(5-(1-methyl-1H-pyrazol-3-yl)pyridazin-3-yl)-2-morpholino-N-(p-tolyl)pyrimidin-4-amine]	0.01 to 0.1	< 0.01
COc1c(-c2cccc(-c3ccn(C)n3)c2)nc(N2CCOCC2)nc1C(O)c1ccncc1 (stereo not shown) [Compound 32]	1 to 10	0.1 to 1
COc1c(Nc2ccncc2)nc(N2CCOCC2)nc1-c1cccc(-c2cccnn2)c1 [Compound 10, 5-methoxy-2-morpholino-6-(3-(pyridazin-3-yl)phenyl)-N-(pyridin-4-yl)pyrimidin-4-amine]	0.1 to 1	0.01 to 0.1
COc1c(C(=O)Nc2ccccc2)nc(N2CCOCC2)nc1-c1ccn(-c2ccccc2)n1 [Compound 1, 5-methoxy-2-morpholino-N-phenyl-6-(1-phenyl-1H-pyrazol-3-yl)pyrimidine-4-carboxamide]	1 to 10	0.01 to 0.1
COc1ccc(-c2nc(N3CCOCC3)nc(Nc3ccncc3)c2OC)cc1OC [Compound 13, 6-(3,4-dimethoxyphenyl)-5-methoxy-2-morpholino-N-(pyridin-4-yl)pyrimidin-4-amine]	0.1 to 1	< 0.01
Cn1ccc(-c2cnc3c(c2)-c2nc(N4CCOCC4)nc(Nc4ccncc4)c2OC3)n1 [Compound 40, 9-(1-methyl-1H-pyrazol-3-yl)-2-morpholino-N-(pyridin-4-yl)-6H-pyrido[3′,2′:4,5] pyrano[3,2-d]pyrimidin-4-amine]	0.01 to 0.1	0.01 to 0.1
COc1c(Nc2ccncc2)nc(N2CCOCC2)nc1-c1cccc(N2CCN(C)C(=O)C2)c1 [Compound 15, 4-(3-(5-methoxy-2-morpholino-6-(pyridin-4-ylamino)pyrimidin-4-yl)phenyl)-1-methylpiperazin-2-one]	0.1 to 1	0.01 to 0.1
COc1c(Nc2ccncc2)nc(N2CCOCC2)nc1-c1cncc(-c2ccn(C)n2)c1 [Compound 7, 5-methoxy-6-(5-(1-methyl-1H-pyrazol-3-yl)pyridin-3-yl)-2-morpholino-N-(pyridin-4-yl)pyrimidin-4-amine]	0.01 to 0.1	< 0.01
COc1c(Nc2cccnc2)nc(N2CCOCC2)nc1-c1cncc(-c2ccn(C)n2)c1 [Compound 19, 5-methoxy-6-(5-(1-methyl-1H-pyrazol-3-yl)pyridin-3-yl)-2-morpholino-N-(pyridin-3-yl)pyrimidin-4-amine]	0.1 to 1	0.01 to 0.1
COc1c(Nc2ccncc2)nc(N2CCC(O)CC2)nc1-c1cccc(-c2ccn(C)n2)c1 [Compound 46, 1-(5-methoxy-4-(3-(1-methyl-1H-pyrazol-3-yl)phenyl)-6-(pyridin-4-ylamino)pyrimidin-2-yl)piperidin-4-ol]	> 10	0.1 to 1
Cn1c(=O)c2c(Nc3ccncc3)nc(N3CCOCC3)nc2c2cc(-n3cccn3)ccc21 [Compound 65, 6-methyl-2-morpholino-9-pyrazol-1-yl-4-(4-pyridylamino)pyrimido[5,4-c]quinolin-5-one]	1 to 10	0.01 to 0.1
COc1cn(C)nc1-c1cccc(-c2nc(N3CCOCC3)nc(Nc3ccncc3)c2OC)c1 [Compound 47, 5-methoxy-6-(3-(4-methoxy-1-methyl-1H-pyrazol-3-yl)phenyl)-2-morpholino-N-(pyridin-4-yl)pyrimidin-4-amine]	0.1 to 1	0.01 to 0.1
COc1c(Nc2ccncc2)nc(-c2ccncc2)nc1-c1ccnc(-c2ccn(C)n2)c1 [Compound 39, 5-methoxy-6-(2-(1-methyl-1H-pyrazol-3-yl)pyridin-4-yl)-N, 2-di(pyridin-4-yl)pyrimidin-4-amine]	0.01 to 0.1	< 0.01
COc1c(Nc2ccncc2)nc(N2CCCC2=O)nc1-c1cccc(-c2ccn(C)n2)c1 [Compound 44, 1-(5-methoxy-4-(3-(1-methyl-1H-pyrazol-3-yl)phenyl)-6-(pyridin-4-ylamino)pyrimidin-2-yl)pyrrolidin-2-one]	> 10	1 to 10
Cn1ccc(-c2cc3c(cn2)COc2c(Nc4ccncc4)nc(N4CCOCC4)nc2-3)n1 [Compound 38, 9-(1-methyl-1H-pyrazol-3-yl)-2-morpholino-N-(pyridin-4-yl)-6H-pyrido[4′,3′:4,5]pyrano[3,2-d]pyrimidin-4-amine]	0.1 to 1	0.01 to 0.1
COc1c(Nc2ccncc2)nc(N2CCOCC2)nc1-c1ccnc(-c2ccn(C)n2)c1 [Compound 14, 5-methoxy-6-(2-(1-methyl-H-pyrazol-3-yl)pyridin-4-yl)-2-morpholino-N-(pyridin-4-yl)pyrimidin-4-amine]	0.01 to 0.1	< 0.01
COc1c(Oc2cccnc2)nc(N2CCOCC2)nc1-n1cc(-c2ccccc2)cn1 [Compound 2, 4-(5-methoxy-4-(4-phenyl-1H-pyrazol-1-yl)-6-(pyridin-3-yloxy)pyrimidin-2-yl) morpholine]	1 to 10	0.01 to 0.1
COc1c(NCc2cccnc2)nc(-c2ccncc2)nc1-c1cccc(-c2ccn(C)n2)c1 [Compound 62, 5-methoxy-6-(3-(1-methyl-1H-pyrazol-3-yl)phenyl)-N-(pyridin-3-ylmethyl)-2-(pyridin-4-yl)pyrimidin-4-amine]	0.1 to 1	< 0.01
COc1c(Nc2ccncc2)nc(N2CCOCC2)nc1-c1cncc(-c2cccnn2)c1 [Compound 57]	0.1 to 1	< 0.01
COc1cc(-c2nc(N3CCOCC3)nc(Nc3ccncc3)c2OC)cnc1OC [Compound 12, 6-(5,6-dimethoxypyridin-3-yl)-5-methoxy-2-morpholino-N-(pyridin-4-yl)pyrimidin-4-amine]	0.1 to 1	< 0.01
